In ChEMBL document CHEMBL5335777 (Eur J Med Chem, 2023):
pIC50: −log10 of the molar value. Active and inactive are the calls of the source. The rule behind the calls is not given here.

Key:
[1] = test system: GTPase KRas (Homo sapiens), P01116 [G12C]; assay: Binding affinity to Cys80 residue of GDP bound human KRAS-4B G12C mutant (1 to 169 residues) expressed in Escherichia coli BL21 Rosetta cells at 150 to 500 uM measured after 96 hrs by 1H-15N HSQC NMR spectral analysis; details: dose 150-500 µM
[2] = Cytotoxicity against human CCD-986Sk cells assessed as inhibition of cell growth incubated for 72 hrs by MTT assay; assay type: toxicity, cell-based
NCI-H1792 [3] = assay: Antiproliferative activity against human NCI-H1792 cells harboring heterozygous KRAS G12C mutant assessed as inhibition of cell growth incubated for 72 hrs by MTT assay; assay type: functional, cell-based; details: NCI-H1792, 72 h
[4] = Clearance in NOD-SCID mouse at 15 mg/kg, ip administered as single dose and measured upto 48 hrs by HPLC/MS analysis; assay type: ADME, organism-based; details: in vivo
NCI-H1792 [5] = assay: Antiproliferative activity against human NCI-H1792 cells harboring KRAS G12C mutant assessed as cell viability at 25 uM incubated for 72 hrs by MTT assay relative to control; assay type: functional; details: read-out: Activity
A549 = assay: Antiproliferative activity against human A549 cells harboring homozygous KRAS G12S mutant assessed as inhibition of cell growth incubated for 72 hrs by MTT assay; assay type: functional, cell-based; details: A549, 72 h
[6] = test system: GTPase KRas (Homo sapiens), P01116 [G12C]; assay: Binding affinity to Cys118 residue of GDP bound human KRAS-4B G12C mutant (1 to 169 residues) expressed in Escherichia coli BL21 Rosetta cells at 150 to 500 uM measured after 96 hrs by 1H-15N HSQC NMR spectral analysis; details: dose 150-500 µM
[7] = Cytotoxicity against HUVEC cells immortalized with TERT assessed as inhibition of cell growth incubated for 72 hrs by MTT assay; assay type: toxicity, cell-based; details: human
[8] = test system: GTPase KRas (Homo sapiens), P01116 [G12C]; assay: Covalent binding affinity to GDP-bound human KRAS-4B G12C mutant (1 to 169 residues) expressed in Escherichia coli BL21 Rosetta cells at 200 uM measured after 1 hr by Ellman's assay
NCI-H1792 [9] = assay: Antiproliferative activity against human NCI-H1792 cells harboring KRAS G12C mutant assessed as reduction in cell viability at 2.5 uM incubated for 72 hrs by MTT assay; assay type: functional, cell-based
[10] = Toxicity in immunodeficient NOD-SCID mouse xenografted with human NCI-H1792 cells harboring KRAS G12C mutant assessed as body weight at 5 to 30 mg/kg, ip administered for 5 times at 5 mg/kg in first week followed by administration at 20 mg/kg 5 times in second week and further administered 30 mg/kg 3 times in third week measured 20 days post treatment initiation and 38 days post tumor transplantation (reference value: 6.6 g); assay type: organism-based; details: in vivo, 480 h, dose 5-30 mg/kg, time 20 day
BXPC-3 = assay: Antiproliferative activity against human BXPC-3 cells harboring wild type KRAS assessed as inhibition of cell growth incubated for 72 hrs by MTT assay; assay type: functional, cell-based; details: BXPC-3, 72 h
[11] = test system: GTPase KRas (Homo sapiens), P01116 [G12C]; assay: Covalent binding affinity to GDP-bound human KRAS-4B G12C mutant (1 to 169 residues) expressed in Escherichia coli BL21 Rosetta cells assessed as reduction in free Cys residues at 200 uM measured after 1 hr by Ellman's assay
[12] = Volume of distribution in NOD-SCID mouse at 15 mg/kg, ip administered as single dose and measured upto 48 hrs by HPLC/MS analysis; assay type: ADME, organism-based; details: in vivo
NCI-H1792 [13] = assay: Antitumor activity against human NCI-H1792 cells harboring KRAS G12C mutant xenografted in immunodeficient NOD-SCID mouse assessed as reduction in tumor growth at 5 to 30 mg/kg, ip administered for 5 times at 5 mg/kg in first week followed by administration at 20 mg/kg 5 times in second week and further administered 30 mg/kg 3 times in third week measured 17 days post treatment initiation and 35 days post tumor transplantation by digital caliper based analysis relative to control; assay type: functional; design: scale not given: the % may be the effect or the level left; details: dose 5-30 mg/kg, time 17 day
[14] = Tmax in NOD-SCID mouse at 15 mg/kg, ip administered as single dose and measured upto 48 hrs by HPLC/MS analysis; assay type: ADME, organism-based; details: in vivo
LCLC-103H cell line [15] = assay: Antitumor activity against human LCLC-103H cells harboring wild type KRAS xenografted in immunodeficient NOD-SCID mouse assessed as tumor volume at 5 to 30 mg/kg, ip administered for 5 times at 5 mg/kg in first week followed by administration at 20 mg/kg 5 times in second week and further administered 30 mg/kg 3 times in third week measured 17 days post treatment initiation and 35 days post tumor transplantation by digital caliper based analysis; assay type: functional; details: dose 5-30 mg/kg, time 17 day
[16] = Half life in NOD-SCID mouse at 15 mg/kg, ip administered as single dose and measured upto 48 hrs by HPLC/MS analysis; assay type: ADME, organism-based; details: in vivo
PANC-1 = assay: Antiproliferative activity against human PANC-1 cells harboring heterozygous KRAS G12D mutant assessed as inhibition of cell growth incubated for 72 hrs by MTT assay; assay type: functional, cell-based; details: PANC-1, 72 h
MIA PaCa-2 = assay: Antiproliferative activity against human MIA PaCa-2 cells harboring homozygous KRAS G12C mutant assessed as inhibition of cell growth incubated for 72 hrs by MTT assay; assay type: functional, cell-based; details: MIA PaCa-2, 72 h
[17] = test system: GTPase KRas (Homo sapiens), P01116 [G12C]; assay: Covalent binding affinity to GDP-bound human KRAS-4B G12C mutant (1 to 169 residues) expressed in Escherichia coli BL21 Rosetta cells assessed as labelling on Cys12 residue by intact LCMS analysis
[18] = Cytotoxicity against human MRC5 cells assessed as inhibition of cell growth incubated for 72 hrs by MTT assay; assay type: toxicity, cell-based
[19] = test system: GTPase KRas (Homo sapiens), P01116 [G12C]; assay: Covalent binding affinity to GDP-bound human KRAS-4B G12C mutant (1 to 169 residues) expressed in Escherichia coli BL21 Rosetta cells at 200 uM measured after 4 hrs by Ellman's assay
[20] = Toxicity in immunodeficient NOD-SCID mouse xenografted with human LCLC-103H cells harboring wild type KRAS assessed as body weight at 5 to 30 mg/kg, ip administered for 5 times at 5 mg/kg in first week followed by administration at 20 mg/kg 5 times in second week and further administered 30 mg/kg 3 times in third week measured 17 days post treatment initiation and 35 days post tumor transplantation (reference value: 2.6 g); assay type: organism-based; details: in vivo, 408 h, dose 5-30 mg/kg, time 17 day
[21] = AUCt in NOD-SCID mouse at 15 mg/kg, ip administered as single dose and measured upto 48 hrs by HPLC/MS analysis; assay type: ADME, organism-based; design: dose 15 mg/kg, time < 48 hrs, route ip; details: in vivo
SW480 = assay: Antiproliferative activity against human SW480 cells harboring homozygous KRAS G12V mutant assessed as inhibition of cell growth incubated for 72 hrs by MTT assay; assay type: functional, cell-based; details: SW480, 72 h
[22] = Antiproliferative activity against human HCA-7 cells harboring wild type KRAS assessed as inhibition of cell growth incubated for 72 hrs by MTT assay; assay type: functional, cell-based, HCA7; details: HCA-7, 72 h
[23] = test system: GTPase KRas (Homo sapiens), P01116 [G12C]; assay: Binding affinity to Cys51 residue of GDP bound human KRAS-4B G12C mutant (1 to 169 residues) expressed in Escherichia coli BL21 Rosetta cells at 150 to 500 uM measured after 96 hrs by 1H-15N HSQC NMR spectral analysis; details: dose 150-500 µM
[24] = Toxicity in immunodeficient NOD-SCID mouse xenografted with human NCI-H1792 cells harboring KRAS G12C mutant assessed as body weight at 5 to 30 mg/kg, ip administered for 5 times at 5 mg/kg in first week followed by administration at 20 mg/kg 5 times in second week and further administered 30 mg/kg 3 times in third week measured 17 days post treatment initiation and 35 days post tumor transplantation (reference value: 6.6 g); assay type: organism-based; details: in vivo, 408 h, dose 5-30 mg/kg, time 17 day
SW1573 = assay: Antiproliferative activity against human SW1573 cells harboring homozygous KRAS G12C mutant assessed as inhibition of cell growth incubated for 72 hrs by MTT assay; assay type: functional, cell-based; details: SW1573, 72 h
LCLC-103H cell line [25] = assay: Antiproliferative activity against human LCLC-103H cells harboring wild type KRAS assessed as inhibition of cell growth incubated for 72 hrs by MTT assay; assay type: functional, cell-based
[26] = test system: GTPase KRas (Homo sapiens), P01116 [G12C]; assay: Binding affinity to Cys12 residue of GDP bound human KRAS-4B G12C mutant (1 to 169 residues) expressed in Escherichia coli BL21 Rosetta cells at 150 to 500 uM measured after 96 hrs by 1H-15N HSQC NMR spectral analysis; details: dose 150-500 µM
[27] = Cmax in NOD-SCID mouse at 15 mg/kg, ip administered as single dose and measured upto 48 hrs by HPLC/MS analysis; assay type: ADME, organism-based; design: time < 48 hrs, dose 15 mg/kg, route ip; details: in vivo
NCI-H358 = assay: Antiproliferative activity against human NCI-H358 cells harboring heterozygous KRAS G12C mutant assessed as inhibition of cell growth incubated for 72 hrs by MTT assay; assay type: functional, cell-based; details: NCI-H358, 72 h

Question: Which results are given for O=C1Nc2cc(Cl)cc(Cl)c2C1=O?
Answer: Activity [1]: inactive; IC50 at 72 h [2]: 42.7 µM; pIC50 (NCI-H1792 [3]): 4.96; CL/F [4]: 31.6 mL/min; viability at 25 µM (NCI-H1792 [5]): < 50%; pIC50 (A549): 4.35; Activity [6]: inactive; IC50 at 72 h [7]: 24.4 µM; Activity [8]: Active; Activity (NCI-H1792 [9]): Active; Activity [10]: 9.1 g; pIC50 (BXPC-3): 4.88; Activity [11]: Active; Vd [12]: 12096 mL; Activity (NCI-H1792 [13]): 35.8%; Tmax [14]: 0.25 h; Activity (LCLC-103H cell line [15]): 13.3 mm3; half-life [16]: 4.4 h; pIC50 (PANC-1): 4.42; pIC50 (MIA PaCa-2): 4.86; Activity [17]: Active; IC50 at 72 h [18]: 47.9 µM; Activity [19]: 50%; Activity [20]: 2.8 g; AUC(0-t) at 48 h [21]: 169 ng·h/mL; pIC50 (SW480): 4.83; pIC50 [22]: 5.01; Activity [23]: inactive; Activity [24]: 6.9 g; pIC50 (SW1573): 4.63; pIC50 (LCLC-103H cell line [25]): 4.52; Activity [26]: Active; Cmax [27]: 337 ng/mL; pIC50 (NCI-H358): 4.77
